# How the values were obtained:
# [1] = molecular target: T1, Glucagon-like peptide 1 receptor (Homo sapiens, UniProt P43220); assay: Agonist activity at human GLP1 receptor expressed in BHK cells after 3 hrs by CRE firefly luciferase reporter gene assay in absence of human serum albumin; type: functional, cell-based
# [2] = molecular target: T1, Glucagon-like peptide 1 receptor; assay: Displacement of [125I]-GLP1 from human GLP1 receptor expressed in BHK cells after 2 hrs in absence of human serum albumin; type: cell-based
# [3] = molecular target: T1, Glucagon-like peptide 1 receptor; assay: Displacement of [125I]-GLP1 from human GLP1 receptor expressed in BHK cells after 2 hrs in presence of 2% human serum albumin; type: cell-based
# T1 sequence (P43220 whole entry): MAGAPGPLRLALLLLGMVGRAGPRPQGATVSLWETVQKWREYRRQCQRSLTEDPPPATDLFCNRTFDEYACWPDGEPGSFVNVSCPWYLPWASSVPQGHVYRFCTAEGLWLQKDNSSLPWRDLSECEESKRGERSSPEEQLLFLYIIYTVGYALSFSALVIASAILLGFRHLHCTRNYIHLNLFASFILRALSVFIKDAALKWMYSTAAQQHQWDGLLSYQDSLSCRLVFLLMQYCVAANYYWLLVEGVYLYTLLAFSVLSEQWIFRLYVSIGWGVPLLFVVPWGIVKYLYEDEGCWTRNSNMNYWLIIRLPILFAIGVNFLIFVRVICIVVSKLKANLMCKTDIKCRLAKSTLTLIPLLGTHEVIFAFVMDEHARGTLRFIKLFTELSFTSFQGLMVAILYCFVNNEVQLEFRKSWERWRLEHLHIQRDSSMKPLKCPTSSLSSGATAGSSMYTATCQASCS
EC50 [1],IC50 [2],IC50 [3],Compound
0.0675 nM,0.27 nM,6.73 nM,CC[C@H](C)[C@H](NC(=O)[C@H](Cc1ccccc1)NC(=O)[C@H](CCC(=O)O)NC(=O)[C@H](CCCCN)NC(=O)[C@H](C)NC(=O)[C@H](C)NC(=O)[C@H](CCC(N)=O)NC(=O)CNC(=O)[C@H](CCC(=O)O)NC(=O)[C@H](CC(C)C)NC(=O)[C@H](Cc1ccc(O)cc1)NC(=O)[C@H](CO)NC(=O)[C@H](CO)NC(=O)[C@@H](NC(=O)[C@H](CC(=O)O)NC(=O)[C@H](CO)NC(=O)[C@@H](NC(=O)[C@H](Cc1ccccc1)NC(=O)[C@@H](NC(=O)CNC(=O)[C@H](CCC(=O)O)NC(=O)C(C)(C)NC(=O)[C@@H](N)Cc1c[nH]cn1)[C@@H](C)O)[C@@H](C)O)C(C)C)C(=O)N[C@@H](C)C(=O)N[C@@H](Cc1c[nH]c2ccccc12)C(=O)N[C@@H](CC(C)C)C(=O)N[C@H](C(=O)N[C@@H](CCCNC(=N)N)C(=O)NCC(=O)N[C@@H](CCCNC(=N)N)C(=O)NCC(=O)N[C@@H](CCCCNC(=O)COCCOCCNC(=O)COCCOCCNC(=O)CCCCCCCCCCCCCCCCC(=O)O)C(=O)O)C(C)C
,,3.78 nM,CCCCCCCCCCCCCCCC(=O)N[C@@H](CCC(=O)NCCOCCOCC(=O)NCCOCCOCC(=O)NCCCC[C@H](NC(=O)[C@H](C)NC(=O)[C@H](C)NC(=O)[C@H](CCC(N)=O)NC(=O)CNC(=O)[C@H](CCC(=O)O)NC(=O)[C@H](CC(C)C)NC(=O)[C@H](Cc1ccc(O)cc1)NC(=O)[C@H](CO)NC(=O)[C@H](CO)NC(=O)[C@@H](NC(=O)[C@H](CC(=O)O)NC(=O)[C@H](CO)NC(=O)[C@@H](NC(=O)[C@H](Cc1ccccc1)NC(=O)[C@@H](NC(=O)CNC(=O)[C@H](CCC(=O)O)NC(=O)C(C)(C)NC(=O)[C@@H](N)Cc1c[nH]cn1)[C@@H](C)O)[C@@H](C)O)C(C)C)C(=O)N[C@@H](CCC(=O)O)C(=O)N[C@@H](Cc1ccccc1)C(=O)N[C@H](C(=O)N[C@@H](C)C(=O)N[C@@H](Cc1c[nH]c2ccccc12)C(=O)N[C@@H](CC(C)C)C(=O)N[C@H](C(=O)N[C@@H](CCCNC(=N)N)C(=O)NCC(=O)N[C@@H](CCCNC(=N)N)C(=O)NCC(=O)O)C(C)C)[C@@H](C)CC)C(=O)O
,9.19 nM,51.7 nM,CC[C@H](C)[C@H](NC(=O)[C@H](Cc1ccccc1)NC(=O)[C@H](CCC(=O)O)NC(=O)[C@H](CCCCNC(=O)COCCOCCNC(=O)COCCOCCNC(=O)c1ccc(CN(CCC(=O)O)C(=O)CCCCCCCCCCCCCCCCC(=O)O)cc1)NC(=O)[C@H](C)NC(=O)[C@H](C)NC(=O)[C@H](CCC(N)=O)NC(=O)CNC(=O)[C@H](CCC(=O)O)NC(=O)[C@H](CC(C)C)NC(=O)[C@H](Cc1ccc(O)cc1)NC(=O)[C@H](CO)NC(=O)[C@H](CO)NC(=O)[C@@H](NC(=O)[C@H](CC(=O)O)NC(=O)[C@H](CO)NC(=O)[C@@H](NC(=O)[C@H](Cc1ccccc1)NC(=O)[C@@H](NC(=O)CNC(=O)[C@H](CCC(=O)O)NC(=O)C(C)(C)NC(=O)[C@@H](N)Cc1c[nH]cn1)[C@@H](C)O)[C@@H](C)O)C(C)C)C(=O)N[C@@H](C)C(=O)N[C@@H](Cc1c[nH]c2ccccc12)C(=O)N[C@@H](CC(C)C)C(=O)N[C@H](C(=O)N[C@@H](CCCNC(=N)N)C(=O)NCC(=O)N[C@@H](CCCNC(=N)N)C(=O)NCC(=O)O)C(C)C
0.0107 nM,,20.7 nM,CC[C@H](C)[C@H](NC(=O)[C@H](Cc1ccccc1)NC(=O)[C@H](CCC(=O)O)NC(=O)[C@H](CCCCNC(=O)COCCOCCNC(=O)CC[C@H](NC(=O)CCCNC(=O)CCCCCCCCCCCCCCCCC(=O)O)C(=O)O)NC(=O)[C@H](C)NC(=O)[C@H](C)NC(=O)[C@H](CCC(N)=O)NC(=O)CNC(=O)[C@H](CCC(=O)O)NC(=O)[C@H](CC(C)C)NC(=O)[C@H](Cc1ccc(O)cc1)NC(=O)[C@H](CO)NC(=O)[C@H](CO)NC(=O)[C@@H](NC(=O)[C@H](CC(=O)O)NC(=O)[C@H](CO)NC(=O)[C@@H](NC(=O)[C@H](Cc1ccccc1)NC(=O)[C@@H](NC(=O)CNC(=O)[C@H](CCC(=O)O)NC(=O)C(C)(C)NC(=O)[C@@H](N)Cc1c[nH]cn1)[C@@H](C)O)[C@@H](C)O)C(C)C)C(=O)N[C@@H](C)C(=O)N[C@@H](Cc1c[nH]c2ccccc12)C(=O)N[C@@H](CC(C)C)C(=O)N[C@H](C(=O)N[C@@H](CCCNC(=N)N)C(=O)NCC(=O)N[C@@H](CCCNC(=N)N)C(=O)NCC(=O)O)C(C)C

# Source: ChEMBL document CHEMBL3616405 (J Med Chem, 2015)
